Patent US9169254B2, “Spiroimidazolone derivative” (Chugai Seiyaku Kabushiki Kaisha, priority 2009, dated 2015)

These compounds were tested against T1, human PTH1 receptor (Homo sapiens, UniProt Q03431) (assay: In vitro cAMP signal activity in HKRK-B7 cells (LLC-PK1 cells overexpressing the human PTH1 receptor)). Settings: HKRK-B7 cells; compound at 1×10^−3 M; cAMP produced as percentage of that produced by hPTH(1-34) at 100 nM.
T1 sequence (Q03431 27-593): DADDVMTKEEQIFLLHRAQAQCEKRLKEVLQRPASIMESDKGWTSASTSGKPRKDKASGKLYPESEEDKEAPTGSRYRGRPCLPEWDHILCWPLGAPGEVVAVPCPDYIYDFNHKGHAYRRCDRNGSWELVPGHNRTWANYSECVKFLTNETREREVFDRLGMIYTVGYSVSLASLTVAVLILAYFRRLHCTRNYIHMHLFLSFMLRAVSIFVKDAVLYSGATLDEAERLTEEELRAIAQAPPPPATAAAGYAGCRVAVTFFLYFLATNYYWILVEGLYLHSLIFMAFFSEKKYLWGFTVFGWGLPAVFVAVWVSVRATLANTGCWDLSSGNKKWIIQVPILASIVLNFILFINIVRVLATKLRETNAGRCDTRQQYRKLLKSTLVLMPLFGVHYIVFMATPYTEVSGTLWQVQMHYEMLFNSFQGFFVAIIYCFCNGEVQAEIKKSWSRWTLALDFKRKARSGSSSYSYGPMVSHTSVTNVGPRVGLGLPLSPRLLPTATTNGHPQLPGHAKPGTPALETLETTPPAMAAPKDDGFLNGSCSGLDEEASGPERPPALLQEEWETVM
Format: cell-based

Row | SMILES | cAMP production activity (%)
1 | Cc1cc(N(C)C(N)=O)cc(C)c1/C=C/S(=O)(=O)N1CCC2(CC1)N=C(c1cccc(-c3cccc(-c4ccccc4)c3)c1)NC2=O [Compound 1157, 1-{3,5-Dimethyl-4-[(E)-2-(4-oxo-2-[1,1′;3′,1″]terphenyl-3-yl-1,3,8-triaza-spiro[4.5]dec-1-ene-8-sulfonyl)-vinyl]-phenyl}-1-methyl-urea] | 44
2 | Cc1cc(C(=O)N2CCC(O)CC2)cc(C)c1/C=C/S(=O)(=O)N1CCC2(CC1)N=C(c1cccc(OCCCC(F)(F)C(F)(F)F)c1)NC2=O [Compound 1158, 8-{(E)-2-[4-(4-Hydroxy-piperidine-1-carbonyl)-2,6-dimethyl-phenyl]-ethenesulfonyl}-2-[3-(4,4,5,5,5-pentafluoro-pentyloxy)-phenyl]-1,3,8-triaza-spiro[4.5]dec-1-en-4-one] | 103
3 | Cc1cc(C(=O)N2CCC(O)CC2)cc(C)c1/C=C/[S@TB4](=O)(=O)N1CCC2(CC1)N=C(c1ccc(F)c(OC(F)(F)F)c1)NC2=O [Compound 1159, 2-(4-fluoro-3-trifluoromethoxy-phenyl)-8-{(E)-2-[4-(4-hydroxy-piperidine-1-carbonyl)-2,6-dimethyl-phenyl]-ethenesulfonyl}-1,3,8-triaza-spiro[4.5]dec-1-en-4-one] | 87
4 | Cc1cc(C(=O)N2CCC(O)CC2)cc(C)c1/C=C/[S@TB4](=O)(=O)N1CCC2(CC1)N=C(c1ccc3c(c1)OC(F)(F)O3)NC2=O [Compound 1160, 2-(2,2-difluoro-benzo[1,3]dioxol-5-yl)-8-{(E)-2-[4-(4-hydroxy-piperidine-1-carbonyl)-2,6-dimethyl-phenyl]-ethenesulfonyl}-1,3,8-triaza-spiro[4.5]dec-1-en-4-one] | 84
5 | Cc1cc(C(=O)N2CCC(CO)CC2)cc(C)c1/C=C/S(=O)(=O)N1CCC2(CC1)N=C(c1ccc(F)c(OC(F)(F)F)c1)NC2=O [Compound 1161, 2-(4-Fluoro-3-trifluoromethoxy-phenyl)-8-{(E)-2-[4-(4-hydroxymethyl-piperidine-1-carbonyl)-2,6-dimethyl-phenyl]-ethenesulfonyl}-1,3,8-triaza-spiro[4.5]dec-1-en-4-one] | 84
6 | Cc1cc(C(=O)N2CCC(CO)CC2)cc(C)c1/C=C/[S@TB4](=O)(=O)N1CCC2(CC1)N=C(c1ccc(F)c(C(F)(F)F)c1)NC2=O [Compound 1162, 2-(4-fluoro-3-trifluoromethyl-phenyl)-8-{(E)-2-[4-(4-hydroxymethyl-piperidine-1-carbonyl)-2,6-dimethyl-phenyl]-ethenesulfonyl}-1,3,8-triaza-spiro[4.5]dec-1-en-4-one] | 112
7 | Cc1cc(C(=O)N2CCC(C)(O)CC2)cc(C)c1/C=C/S(=O)(=O)N1CCC2(CC1)N=C(c1ccc3c(c1)OC(F)(F)O3)NC2=O [Compound 1163, 2-(2,2-Difluoro-benzo[1,3]dioxol-5-yl)-8-{(E)-2-[4-(4-hydroxy-4-methyl-piperidine-1-carbonyl)-2,6-dimethyl-phenyl]-ethenesulfonyl}-1,3,8-triaza-spiro[4.5]dec-1-en-4-one] | 101
8 | Cc1cc(OC[C@H](O)CO)cc(C)c1/C=C/S(=O)(=O)N1CCC2(CC1)N=C(c1ccc(F)c(OC(F)(F)F)c1)NC2=O [Compound 1164, 8-{(E)-2-[4-((R)-2,3-Dihydroxy-propoxy)-2,6-dimethyl-phenyl]-ethenesulfonyl}-2-(4-fluoro-3-trifluoromethoxy-phenyl)-1,3,8-triaza-spiro[4.5]dec-1-en-4-one] | 4.7
9 | Cc1cc(OC[C@H](O)CO)cc(C)c1/C=C/S(=O)(=O)N1CCC2(CC1)N=C(c1ccc3c(c1)OC(F)(F)O3)NC2=O [Compound 1165, 2-(2,2-difluoro-benzo[1,3]dioxol-5-yl)-8-{(E)-2-[4-((R)-2,3-dihydroxy-propoxy)-2,6-dimethyl-phenyl]-ethenesulfonyl}-1,3,8-triaza-spiro[4.5]dec-1-en-4-one] | 4.3
10 | Cc1cc(OCCC(O)CO)ccc1/C=C/S(=O)(=O)N1CCC2(CC1)N=C(c1ccc(F)c(OC(F)(F)F)c1)NC2=O (centres unmarked) [Compound 1166, 8-{(E)-2-[4-(3,4-Dihydroxy-butoxy)-2-methyl-phenyl]-ethenesulfonyl}-2-(4-fluoro-3-trifluoromethoxy-phenyl)-1,3,8-triaza-spiro[4.5]dec-1-en-4-one] | 144
11 | Cc1cc(OCCC(O)CO)ccc1/C=C/S(=O)(=O)N1CCC2(CC1)N=C(c1ccc3c(c1)OC(F)(F)O3)NC2=O (centres unmarked) [Compound 1167, 2-(2,2-difluoro-benzo[1,3]dioxol-5-yl)-8-{(E)-2-[4-(3,4-dihydroxy-butoxy)-2-methyl-phenyl]-ethenesulfonyl}-1,3,8-triaza-spiro[4.5]dec-1-en-4-one] | 115
12 | O=C(O)Cn1ccc2c(/C=C/S(=O)(=O)N3CCC4(CC3)N=C(C3CCCCC3)NC4=O)cccc21 [Compound 1168, {4-[(E)-2-(2-Cyclohexyl-4-oxo-1,3,8-triaza-spiro[4.5]dec-1-ene-8-sulfonyl)-vinyl]-indol-1-yl}-acetic acid] | 27
13 | Cc1cc(NC(=O)NCC(=O)O)ccc1/C=C/S(=O)(=O)N1CCC2(CC1)N=C(C1CCC(C)CC1)NC2=O (centres unmarked) [Compound 1169, [3-(3-methyl-4-{(E)-2-[2-(4-methyl-cyclohexyl)-4-oxo-1,3,8-triaza-spiro[4.5]dec-1-ene-8-sulfonyl]-vinyl}-phenyl)-ureido]-acetic acid] | 50

Results, then the compound that gave them:

Row | cAMP production activity (%) | SMILES
14 | 107 | Cc1cc(N(C)C(N)=O)cc(C)c1CCS(=O)(=O)N1CCC2(CC1)N=C([C@H]1CCC[C@@H](CCC(C)C)C1)NC2=O [Compound 1146, 1-[3,5-dimethyl-4-(2-{2-[(1S,3S)-3-(3-methyl-butyl)-cyclohexyl]-4-oxo-1,3,8-triaza-spiro[4.5]dec-1-ene-8-sulfonyl}-ethyl)-phenyl]-1-methyl-urea]
15 | 112 | Cc1cc(N(C)C(N)=O)cc(C)c1CC[S@TB4](=O)(=O)N1CCC2(CC1)N=C(CCC(F)(F)CCCCCC(F)(F)F)NC2=O [Compound 1147, 1-(3,5-dimethyl-4-{2-[4-oxo-2-(3,3,9,9,9-pentafluoro-nonyl)-1,3,8-triaza-spiro[4.5]dec-1-ene-8-sulfonyl]-ethyl}-phenyl)-1-methyl-urea]
16 | 98 | [2H]C([2H])([2H])C([2H])([2H])C1=CC[C@H](C2=NC3(CCN([S@TB18](=O)(=O)CCc4c(C)cc(N(C)C(N)=O)cc4C)CC3)C(=O)N2)CC1 [Compound 1149, 1-(4-{2-[2-(4-[1,1,2,2,2-^2H5]ethyl-cyclohex-3-enyl)-4-oxo-1,3,8-triaza-spiro[4.5]dec-1-ene-8-sulfonyl]-ethyl}-3,5-dimethyl-phenyl)-1-methyl-urea]
17 | 107 | Cc1cc(N(C)C(N)=O)cc(C)c1CCS(=O)(=O)N1CCC2(CC1)N=C(c1ccc(Cl)c(C(F)(F)F)c1)NC2=O [Compound 1150, 1-(4-{2-[2-(4-Chloro-3-trifluoromethyl-phenyl)-4-oxo-1,3,8-triaza-spiro[4.5]dec-1-ene-8-sulfonyl]-ethyl}-3,5-dimethyl-phenyl)-1-methyl-urea]
18 | 105 | Cc1cc(N(C)C(N)=O)cc(C)c1CCS(=O)(=O)N1CCC2(CC1)N=C(C(F)CCCCCCCC(F)(F)F)NC2=O (centres unmarked) [Compound 1151, 1-(3,5-Dimethyl-4-{2-[4-oxo-2-(1,9,9,9-tetrafluoro-nonyl)-1,3,8-triaza-spiro[4.5]dec-1-ene-8-sulfonyl]-ethyl}-phenyl)-1-methyl-urea]
19 | 0.8 | CCCc1ccc(-c2cccc(C3=NC4(CCN(S(=O)(=O)CCc5c(C)cc(N(C)C(N)=O)cc5C)CC4)C(=O)N3)c2)cc1 [Compound 1152, 1-(3,5-Dimethyl-4-{2-[4-oxo-2-(4′-propyl-biphenyl-3-yl)-1,3,8-triaza-spiro[4.5]dec-1-ene-8-sulfonyl]-ethyl}-phenyl)-1-methyl-urea]
20 | 106 | Cc1cc(N(C)C(N)=O)cc(C)c1CC[S@TB4](=O)(=O)N1CCC2(CC1)N=C(CCCCCCCCCCCF)NC2=O [Compound 1153, 1-(4-{2-[2-(11-fluoro-undecyl)-4-oxo-1,3,8-triaza-spiro[4.5]dec-1-ene-8-sulfonyl]-ethyl}-3,5-dimethyl-phenyl)-1-methyl-urea]
21 | 115 | CCSCCCCCCC1=NC2(CCN([S@TB18](=O)(=O)CCc3c(C)cc(N(C)C(N)=O)cc3C)CC2)C(=O)N1 [Compound 1154, 1-(4-{2-[2-(6-ethylsulfanyl-hexyl)-4-oxo-1,3,8-triaza-spiro[4.5]dec-1-ene-8-sulfonyl]-ethyl}-3,5-dimethyl-phenyl)-1-methyl-urea]
22 | 83 | Cc1cc(N(C)C(N)=O)cc(C)c1CC[S@TB4](=O)(=O)N1CCC2(CC1)N=C(c1cccc(-c3cccc(-c4ccccc4)c3)c1)NC2=O [Compound 1155, 1-{3,5-dimethyl-4-[2-(4-oxo-2-[1,1′;3′,1″]terphenyl-3-yl-1,3,8-triaza-spiro[4.5]dec-1-ene-8-sulfonyl)-ethyl]-phenyl}-1-methyl-urea]
23 | 77 | Cc1cc(N(C)C(N)=O)cc(C)c1CC[S@TB4](=O)(=O)N1CCC2(CC1)N=C(CCCCCCCCCCC(F)F)NC2=O [Compound 1156, 1-(4-{2-[2-(11,11-difluoro-undecyl)-4-oxo-1,3,8-triaza-spiro[4.5]dec-1-ene-8-sulfonyl]-ethyl}-3,5-dimethyl-phenyl)-1-methyl-urea]
